Assay results: ChEMBL document CHEMBL1177881, “Synthesis and GABAA receptor activity of A-homo analogues of neuroactive steroids” (Eur J Med Chem, 2010)

What was measured:
[1] = species: Rattus norvegicus; experiment: Displacement of [35S]TBPS from GABAA receptor in rat cerebellum at 10 uM to 1 nM after 60 mins; format: tissue-based
[2] = Displacement of [35S]TBPS from GABAA receptor in rat cerebellum after 60 mins; format: tissue-based

Compound CC(=O)[C@H]1CC[C@H]2[C@@H]3CC=C4C[C@H](O)CCC[C@]4(C)[C@H]3CC[C@]12C has an Imax [1] of 50.7% and an IC50 [2] of 800 nM.

In the case of CC(=O)[C@H]1CC[C@H]2[C@@H]3CC=C4CC[C@@H](O)CC[C@]4(C)[C@H]3CC[C@]12C, the Imax [1] is reported as 50% and the IC50 [2] is reported as 100 nM.

With CC(=O)[C@H]1CC[C@H]2[C@@H]3CC[C@H]4CC[C@@H](O)CC[C@]4(C)[C@H]3CC[C@]12C the Imax [1] was 46.2% and the IC50 [2] was 1000 nM.

With CC(=O)[C@H]1CC[C@H]2[C@@H]3CC[C@H]4C[C@H](O)CC[C@]4(C)[C@H]3CC[C@]12C [BREXANOLONE] the Imax [1] was 79.6% and the IC50 [2] was 80 nM.

In the case of CC(=O)[C@H]1CC[C@H]2[C@@H]3CC=C4CC[C@H](O)CC[C@]4(C)[C@H]3CC[C@]12C, the Imax [1] is reported as 75.6% and the IC50 [2] is reported as 1200 nM.
